The data set in a line: Solubility of resins @ 37° C. It is filed as physicochemical.

Regarding “HEMA-based Monoimidazole-dimethacrylate Resin [Example 3a]”, for the setting “Table I”, the “Solubility @ 37° C. in water” value was “partially” and the “Solubility @ 37° C. in water/ethanol (50:50, w/w %)” value is given as “soluble”.

In the case of “Isosorbide-based Bisimidazole-dimethacrylate Resin [Example 1]”, under “Table I”, the “Solubility @ 37° C. in water” value is “partially” and the “Solubility @ 37° C. in water/ethanol (50:50, w/w %)” value is recorded as “soluble”.

On to “Isosorbide-based Bisimidazoliumbromide-dimethacrylate Resin [Example 5]”, for which the “Solubility @ 37° C. in EtOH” value (Table II, EtOH) is “soluble”. Besides, the “Solubility @ 37° C. in water/ethanol (50:50, w/w %)” value (Table II) was “soluble”.

Regarding “TCDC-based Bisimidazole-dimethacrylate Resin [Example 2]”, where the note is “Table I”, the “Solubility @ 37° C. in water” value is reported as “partially” and the “Solubility @ 37° C. in water/ethanol (50:50, w/w %)” value is reported as “soluble”.

The values are drawn from USRE47512E1, “Imidazole and imidazolium resins and methods for preparing curable imidazolium antimicrobial resins” (DENTSPLY SIRONA INC., priority 2011, dated 2019).
